Experimental data from patent publication US9790218B2, “Small molecule activators of calcium-activated chloride channels and methods of use” (The Regents of the University of California, priority 2011, dated 2017).
Read-outs that look alike come from different tables or passages of the source. Values belong to the compound of their own block, whether it stands above or below them.

Experiments:
[1] = target: T1, TMEM16A (Homo sapiens, UniProt Q5XXA6, DEL476-501); test: Fluorescence plate reader assay of TMEM16A-mediated I^− influx (YFP halide sensor); format: cell-based; conditions: for EC50 (μM) / EC50: fluorescence plate reader assay; for TMEM16A conductance, F class SAR: synthesized F class analogs; for EC50: read-out: EC50
T1 construct: expressed in transfected cells
T1 sequence (Q5XXA6 with tags, fused parts or gaps isoform Q5XXA6-5 DEL539-564): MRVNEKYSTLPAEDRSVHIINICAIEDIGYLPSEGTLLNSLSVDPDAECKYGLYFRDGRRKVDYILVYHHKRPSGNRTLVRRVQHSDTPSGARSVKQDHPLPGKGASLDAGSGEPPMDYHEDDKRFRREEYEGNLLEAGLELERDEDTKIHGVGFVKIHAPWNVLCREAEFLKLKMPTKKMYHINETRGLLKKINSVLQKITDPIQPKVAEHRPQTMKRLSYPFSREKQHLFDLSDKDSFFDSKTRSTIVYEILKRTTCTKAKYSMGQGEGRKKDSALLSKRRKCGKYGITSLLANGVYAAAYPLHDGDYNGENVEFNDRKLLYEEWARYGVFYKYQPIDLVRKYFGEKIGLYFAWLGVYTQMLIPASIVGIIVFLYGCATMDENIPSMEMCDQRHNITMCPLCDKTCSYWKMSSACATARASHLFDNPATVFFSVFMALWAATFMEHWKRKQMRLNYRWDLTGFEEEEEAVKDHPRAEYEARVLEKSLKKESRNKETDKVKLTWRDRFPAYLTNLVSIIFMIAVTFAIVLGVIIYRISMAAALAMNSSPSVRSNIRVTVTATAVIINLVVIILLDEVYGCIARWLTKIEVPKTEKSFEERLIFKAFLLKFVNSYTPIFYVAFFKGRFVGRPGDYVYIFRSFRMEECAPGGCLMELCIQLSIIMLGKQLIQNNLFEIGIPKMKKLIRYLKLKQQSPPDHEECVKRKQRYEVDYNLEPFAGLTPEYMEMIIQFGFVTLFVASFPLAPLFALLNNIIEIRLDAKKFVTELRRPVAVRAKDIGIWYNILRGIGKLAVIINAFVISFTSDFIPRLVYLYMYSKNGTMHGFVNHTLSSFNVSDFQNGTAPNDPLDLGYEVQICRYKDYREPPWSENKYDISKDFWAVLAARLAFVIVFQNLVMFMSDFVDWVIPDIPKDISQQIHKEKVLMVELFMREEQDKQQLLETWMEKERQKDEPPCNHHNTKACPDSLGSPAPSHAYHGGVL
Description: (§1) FRT cells were stably transfected with human TMEM16A (TMEM16A(abc), cDNA provided by Dr. Luis Galietta, Gaslini Institute, Genoa, Italy) and the halide sensor YFP-H148Q/1152L/F46L. Cells were plated in 96-well black-walled microplates (Corning Inc., Corning, N.Y.) at a density of 20,000 cells per well in Coon's modified F12 medium supplemented with 5% fetal calf serum, 2 mM L-glutamine, 100 U/mL penicillin and 100 μg/mL streptomycin. The human submandibular cell line A253 (ATCC HTB 41) was cultured in complete McCoy's 5A medium supplemented with 10% fetal bovine serum, 100 U/mL penicillin and 100 μg/mL streptomycin.
TMEM16A activators were identified from screening of ˜110,000 synthetic drug-like compounds, purified natural products and approved/investigational drugs. The cell-based screen employs FRT cells coexpressing human TMEM16A and the I^−-sensing yellow fluorescent protein YFP-H148Q/1152L/F46L. FRT cells were chosen because of their low basal I^− and Cl^− transport, rapid growth on uncoated plastic, strong stable expression of transfected proteins, and formation of tight junctions for measurements of transepithelial short-circuit current (Ma et al., supra).
High-throughput screening was done using an automated screening platform (Beckman) equipped with FluoStar fluorescence plate readers (BMG Lab Technologies, Durham, N.C.) as described (Ma et al., supra). Each well of a 96-well plate was washed 3 times with PBS (200 μL/wash), leaving 50 μL PBS. Test compounds (0.5 μL) were added to each well at […]. After 10 min, 96-well plates were transferred to a plate reader for fluorescence assay. Each well was assayed individually for TMEM16A-mediated I^− influx by recording fluorescence continuously (400 ms per point) for 2 s (baseline), then 50 μL of a 140 mM I^− solution was added. The initial rate of I^− influx was computed from fluorescence data by non-linear regression.
As diagrammed in FIG. 1A, test compounds at 25 μM final concentration were added 10 min prior to I^− addition. The 10 min incubation was chosen to allow for compound transport into cytoplasm and to minimize false positives from compounds that elevate cytoplasmic Ca^2+ transiently. Fluorescence from individual wells of 96-well plates was measured just prior to and for 6 s after I^− addition for computation of initial I^− influx rate.

[2] = target: T1, TMEM16A; test: Apical membrane current in TMEM16A-expressing FRT cells; format: cell-based; conditions: basolateral membrane permeabilized, Cl^− gradient; ATP 100 μM
Description: as §1
Snapwell inserts containing TMEM16A-expressing FRT, HBE, CF HBE or HTG cells were mounted in Ussing chambers (Physiologic Instruments, San Diego, Calif.). Amiloride, CFTRinh-172, UTP, ATP, T16Ainh-A01 and TMEM16A activators were added to the apical solution and an equal volume of vehicle was added at the same time to the basolateral solution. Symmetrical HCO3^−-buffered solutions were used for HBE, CF HBE and HTG cells. For FRT cells, the hemichambers were filled with a half-Cl^− solution (apical) and the HCO3^−-buffered solution (basolateral), and the basolateral membrane was permeabilized with 250 μg/mL amphotericin B, as described (Namkung et al. (2010), supra). Cells were bathed for a 10 min stabilization period and aerated with 95% O2/5% CO2 at 37° C. or room temperature. Apical membrane current (for FRT cells) and short-circuit current were measured using an EVC4000 Multi-Channel V/I Clamp (World Precision Instruments, Sarasota, Fla.) and recorded using PowerLab/8sp (AD Instruments, Castle Hill, Australia).
The current increase was sustained for >10 min (FIG. 2B, inset). […] Data are also shown for a second Fact compound (Fact9, see Table 1) in FIG. 9.

[3] = system: mouse ileal smooth muscle; test: Intestinal smooth muscle contraction, ex vivo mouse ileal segments; conditions: Eact 10 μM, carbachol 1 μM following atropine
Description: FIG. 8A-C. Intestinal smooth muscle contraction. FIG. 8A. Representative traces from mouse ileal segments showing effects of T16Ainh-A01 (10 μM), carbachol (CCh, 1 μM) and Eact (10 μM). FIG. 8B. Effect of CCh (1 μM) and Eact (10 μM) following atropine (1 μM). FIG. 8C. Summary of contraction frequency (left), and resting and maximum tone (right) (mean±S.E., n=4-7, * P<0.05).
Wild type CD1 mice (age 8-10 weeks) were killed by avertin overdose (200 mg/kg). The ileum removed and washed with ice-cold HCO3^−-buffered solution. The ends of the ileal segments were tied with silk thread and connected to a force transducer. Beal segments were equilibrated for 60 min with a resting force of ˜1 mN, with changes of the bathing solution every 15 min. Tension was monitored continuously with a fixed-range precision force transducer (TSD, 125 C; Biopac, Goleta, Calif.) connected to a differential amplifier (DA 100B; Biopac). Data were recorded using MP100, Biopac digital acquisition system and analyzed using Acknowledge 3.5.7 software.
TMEM16A in expressed in the interstitial cells of Cajal, the pacemaker cells that control smooth muscle contraction dynamics in stomach and intestine (Huang et al., supra; Gomez-Pinilla et al. (2009) Am. J. Physiol. Gastrointest. Liver Physiol. 296, G1370-1381). The effect of Eact on mouse ileal smooth muscle contraction was investigated using an ex vivo intestinal preparation. […] Without wishing to be bound by theory, the constitutive TMEM16A activity in this ex vivo preparation could obscure Eact activity. To reveal Eact effects, atropine was first added to inhibit basal contractions. […] FIG. 8C summarizes data on contraction frequency, resting tone and maximal tone.

EC50 (μM) ([1]; Fact analogs): inactive
Structure (SMILES): O=C(Nc1ccccc1Br)c1cccc(-n2cnnn2)c1 [2-bromophenyl]

EC50 (μM) ([1]; Fact analogs): inactive
Structure (SMILES): O=C(Nc1cccc(Br)c1)c1cccc(-n2cnnn2)c1 [3-bromophenyl]

EC50 (μM) ([1]; Fact analogs): inactive
TMEM16A conductance, F class SAR [1]: low activity
Structure (SMILES): CN(C)c1ccc(NC(=O)c2cccc(-n3cnnn3)c2)cc1 [4-(N,N-dimethylamino)phenyl]

EC50 ([1]; Fact analogs): 55 µM
Structure (SMILES): O=C(Nc1ccc(Br)c(C(F)(F)F)c1)c1cccc(-n2cnnn2)c1 [4-bromo-3-trifluoromethylphenyl]

Structure (SMILES): O=C(Nc1ccc(Cl)cc1)c1cccc(-n2cnnn2)c1 [4-chlorophenyl]
EC50 (μM) ([1]; Fact analogs): inactive
TMEM16A conductance, F class SAR [1]: low activity

EC50 (μM) ([1]; Fact analogs): inactive
TMEM16A conductance, F class SAR [1]: low activity
Structure (SMILES): O=C(Nc1ccc([N+](=O)[O-])cc1)c1cccc(-n2cnnn2)c1 [4-nitrophenyl]

EC50 ([1]; Eact analogs): 2 µM
Structure (SMILES): COc1ccc(CC(=O)N(Cc2ccncc2)c2nc(-c3ccccc3)cs2)c(OC)c1OC [(pyrid-4-yl)methyl / phenyl, N-(4-pyridylmethyl)-N-(4-phenyl-2-thiazolyl)-2,3,4-trimethoxybenzeneacetamide]

Structure (SMILES): Nc1ncnc2c1ncn2[C@@H]1O[C@H](COP(=O)(O)OP(=O)(O)OP(=O)(O)O)[C@@H](O)[C@H]1O [ATP, reference compound]
Cl^− current (apical membrane current) [2]: large but transient elevation in Cl^− current

EC50 ([1]; Fact analogs): 11 µM
Cl^− current (apical membrane current) [2]: stimulated TMEM16A Cl^− current
Structure (SMILES): CC(C)c1ccc(NC(=O)c2cccc(-n3cnnn3)c2)cc1 [Fact9, N-(4-isopropylphenyl)-3-(1H-tetrazol-1-yl)benzamide]

Structure (SMILES): CN1[C@@H]2CC[C@H]1C[C@@H](OC(=O)C(CO)c1ccccc1)C2 (stereo partly drawn) [atropine]
contraction after atropine (1 μM) [3]: prevented the carbachol effect

EC50 ([1]; Eact analogs): 4 µM
Structure (SMILES): COc1ccc(-c2csc(N(Cc3ccccc3)C(=O)c3cc(OC)c(OC)c(OC)c3)n2)cc1 [benzyl / 4-methoxyphenyl]
